Consider 13 compounds from patent US8642656B2, “Calixarene-based peptide conformation mimetics, methods of use, and methods of making” (priority 2004, dated 2014).

What all share (test): LPS neutralization assay (Limulus amoebocyte lysate, QCL-1000)
For experiment [1], the system named is LPS from E. coli serotype 0111:B4. Format: biochemical. The settings on record: read-out: IC50 values (μM) for LPS binding, E. coli 0111:B4. An excerpt: (§1) The ability of compounds to neutralize endotoxin was detected in vitro by using the chromogenic QCL-1000 kit from BioWhittaker, Inc. (Walkersville, Md.), and as described in their protocol. This Limulus amoebocyte lysate (LAL) assay is quantitative for Gram negative bacterial endotoxin (lipopolysaccharide, LPS). In this assay compounds that are active inhibit the LPS-mediated activation of a proenzyme whose active form would release p-nitroaniline (pNA) from a colorless synthetic substrate producing a yellow color (pNA) whose absorption is monitored spectrophotometrically at 405-410 nm. The initial rate of enzyme activation is proportional to the concentration of endotoxin present.
(§2) Variants of LPS from six Gram negative bacteria were used: E. coli serotypes 0111:B4 (Combrex, Walkersville, Md.) and 055:B5 (Sigma, St. Louis, Mo.); Klebsiella pneumoniae (List Biologies, San Jose, Calif.); Pseudomonas aeruginosa (List Biologies, San Jose, Calif.); Salmonella typhimurium (List Biologies, San Jose, Calif.), and Serratia marcascens (List Biologies, San Jose, Calif.). The concentration of compound required to neutralize a given LPS and therefore to inhibit the Limulus amoebocyte lysate driven by 0.04 units of any given LPS was determined by dose response curves fit by using a standard sigmoidal function to determined the JC50 value for each lopomimetic compound. The 0.04 units corresponds to 0.01 ng LPS from E. coli serotype 055:B5, 0.01 ng LPS from E. coli serotype 0111:B4, 0.003 ng LPS from K. pneumoniae, 0.01 ng LPS from P. aeruginosa, 0.03 ng LPS from S. typhimurium, and 0.03 ng LPS from S. marcascens.

For experiment [2], the system named is LPS from E. coli serotype 055:B5. Type of experiment: biochemical.
Source text: as §1, §2

Experiment [3] concerns LPS from P. aeruginosa. Type of experiment: biochemical, Pseudomonas aeruginosa. The settings on record: read-out: IC50 values (μM) for LPS binding, P.a.
Source text: as §1, §2

The test system of experiment [4] is LPS from K. pneumoniae. Format: biochemical, Klebsiella pneumoniae. The settings on record: read-out: IC50 values (μM) for LPS binding, Klebsiella.
Source text: as §1, §2

For experiment [5], the system named is LPS from S. typhimurium. Format: biochemical, Salmonella typhimurium. The settings on record: read-out: IC50 values (μM) for LPS binding, Salmonella.
Source text: as §1, §2

Experiment [6] has as its system LPS from S. marcascens. Format: biochemical, Serratia marcascens. The settings on record: read-out: IC50 values (μM) for LPS binding, Serratia.
Source text: as §1, §2

Where [7] appears, read: Table 2, read-out: IC50 values (μM) for LPS binding, E. coli 055:B4.
Where [8] appears, read: Table 3, errors estimated ±30%, read-out: IC50 values (μM) for LPS binding, E. coli 055:B5.

Read-outs that look alike come from different tables or passages of the source. A value given as a limit tells only on which side of the number the result lay.

Usually IC50 stands for the point on the concentration scale where inhibition reaches its midpoint. In the case of “25,27-Bis[N-(2-aminoethyl)carbamoylmethoxy]-26,28-dihydroxy calix[4]arene [Compound 39]”, the IC50 is 1.6 µM in experiment [1] (Table 2); > 5 µM in experiment [1] (Table 3, errors estimated ±30%); 0.9 µM in experiment [2] (setting [7]); > 5 µM in experiment [2] (setting [8]); 0.8 µM in experiment [3] (Table 2); > 5 µM in experiment [3] (Table 3, errors estimated ±30%). In addition, the IC50 was 0.3 µM in experiment [4] (Table 2); > 5 µM in experiment [4] (Table 3, errors estimated ±30%); 0.6 µM in experiment [5] (Table 2); > 5 µM in experiment [5] (Table 3, errors estimated ±30%); 1.5 µM in experiment [6] (Table 2); > 5 µM in experiment [6] (Table 3, errors estimated ±30%).

In the case of `CCCc1cc2c(OCC(=O)NCCN(C)C)c(c1)Cc1cc(CCC)cc(c1OCC(=O)NCCN(C)C)Cc1cc(CCC)cc(c1OCC(=O)NCCN(C)C)Cc1cc(CCC)cc(c1OCC(=O)NCCN(C)C)C2` [Compound 11b], the half-maximal inhibitory concentration (IC50) in experiment [1] (Table 3, errors estimated ±30%) was 2.7 µM; in experiment [2] (setting [8]), 0.05 µM; in experiment [3] (Table 3, errors estimated ±30%), > 5 µM; in experiment [4] (Table 3, errors estimated ±30%), 0.4 µM; in experiment [5] (Table 3, errors estimated ±30%) it was 0.8 µM; in experiment [6] (Table 3, errors estimated ±30%), > 5 µM.

Turning to `CC(C)(C)c1cc2c(OCC(=O)NCCN)c(c1)Cc1cc(C(C)(C)C)cc(c1OCC(=O)NCCN)Cc1cc(C(C)(C)C)cc(c1OCC(=O)NCCN)Cc1cc(C(C)(C)C)cc(c1OCC(=O)NCCN)C2` [Compound 4], the IC50 in experiment [1] (Table 2) is 2.7 µM; in experiment [1] (Table 3, errors estimated ±30%), 1.6 µM; in experiment [2] (setting [7]) it was 0.05 µM; in experiment [2] (setting [8]) it was 0.9 µM; in experiment [3] (Table 2), > 5 µM; in experiment [3] (Table 3, errors estimated ±30%), 0.8 µM. The half-maximal inhibitory concentration (IC50) in experiment [4] (Table 2) is 0.4 µM; in experiment [4] (Table 3, errors estimated ±30%), 0.3 µM; in experiment [5] (Table 2) it was 0.8 µM; in experiment [5] (Table 3, errors estimated ±30%), 0.6 µM; in experiment [6] (Table 2), > 5 µM; in experiment [6] (Table 3, errors estimated ±30%), 1.5 µM.

With “5,11,17,23-Tetra-tert-butyl-25-(2-aminoethoxy)-27-(2-guanidinoethoxy)-26,28-dihydroxy Calix[4]arene trifluoroacetic acid salt [Compound 28]”, the IC50 was > 5 µM in experiment [1] (Table 3, errors estimated ±30%); 4.1 µM in experiment [2] (setting [8]); > 5 µM in experiment [3] (Table 3, errors estimated ±30%); > 5 µM in experiment [4] (Table 3, errors estimated ±30%); 2.6 µM in experiment [5] (Table 3, errors estimated ±30%); > 5 µM in experiment [6] (Table 3, errors estimated ±30%).

On to `CC(C)CCOc1c2cccc1Cc1cc(CCCP(=O)(O)O)cc(c1O)Cc1cccc(c1OCCC(C)C)Cc1cc(CCCP(=O)(O)O)cc(c1O)C2` [Compound 48], for which the half-inhibitory concentration (IC50) in experiment [1] (Table 2) is > 5 µM; in experiment [1] (Table 3, errors estimated ±30%), > 5 µM; in experiment [2] (setting [7]), > 5 µM; in experiment [2] (setting [8]), > 5 µM; in experiment [3] (Table 2), > 5 µM; in experiment [3] (Table 3, errors estimated ±30%) it was > 5 µM. The IC50 in experiment [4] (Table 2) is > 5 µM; in experiment [4] (Table 3, errors estimated ±30%) it was > 5 µM; in experiment [5] (Table 2), > 5 µM; in experiment [5] (Table 3, errors estimated ±30%), > 5 µM; in experiment [6] (Table 2), > 5 µM; in experiment [6] (Table 3, errors estimated ±30%), > 5 µM.

Regarding “5,17-Di-(hydroxycabonyl)ethyl-25,27-di-(3-methylbutoxy)-26,28-dihydroxycalix[4]arene [Compound 47]”, the IC50 in experiment [1] (Table 2) is > 5 µM; in experiment [1] (Table 3, errors estimated ±30%), > 5 µM; in experiment [2] (setting [7]), > 5 µM; in experiment [2] (setting [8]), > 5 µM; in experiment [3] (Table 2), > 5 µM; in experiment [3] (Table 3, errors estimated ±30%) it was > 5 µM. The concentration for half-maximal inhibition (IC50) in experiment [4] (Table 2) was > 5 µM; in experiment [4] (Table 3, errors estimated ±30%), > 5 µM; in experiment [5] (Table 2), > 5 µM; in experiment [5] (Table 3, errors estimated ±30%), > 5 µM; in experiment [6] (Table 2), > 5 µM; in experiment [6] (Table 3, errors estimated ±30%) it was > 5 µM.

Take `CC(C)CCOc1c2cccc1Cc1cc(CCCOS(=O)(=O)O)cc(c1O)Cc1cccc(c1OCCC(C)C)Cc1cc(CCCOS(=O)(=O)O)cc(c1O)C2` [Compound 49]: the 50% inhibitory concentration (IC50) was 5 µM in experiment [1] (Table 2); 5 µM in experiment [1] (Table 3, errors estimated ±30%); 5 µM in experiment [2] (setting [7]); 5 µM in experiment [2] (setting [8]); > 5 µM in experiment [3] (Table 2); > 5 µM in experiment [3] (Table 3, errors estimated ±30%). Moreover, the IC50 in experiment [4] (Table 2) is 2.1 µM; in experiment [4] (Table 3, errors estimated ±30%), 2.1 µM; in experiment [5] (Table 2) it was > 5 µM; in experiment [5] (Table 3, errors estimated ±30%), > 5 µM; in experiment [6] (Table 2) it was 4.2 µM; in experiment [6] (Table 3, errors estimated ±30%), 4.2 µM.

As for `NCCNC(=O)COc1c2cccc1Cc1cccc(c1O)Cc1cccc(c1OCC(=O)NCCN)Cc1cccc(c1O)C2` [Compound 20], the IC50 was > 5 µM in experiment [1] (Table 2); > 5 µM in experiment [2] (setting [7]); > 5 µM in experiment [3] (Table 2); > 5 µM in experiment [4] (Table 2); 1.2 µM in experiment [5] (Table 2); > 5 µM in experiment [6] (Table 2).

For the compound “5,17-Di-(2-methylpropyl)-11,23-dipropyl-25,26,27,28-tetrakis-N—(N,N-dimethyl-2-aminoethyl)carbamoylmethoxy calix[4]arene [Compound 17]”, the IC50 in experiment [1] (Table 3, errors estimated ±30%) was 3.7 µM; in experiment [2] (setting [8]), 3.8 µM; in experiment [3] (Table 3, errors estimated ±30%) it was > 5 µM; in experiment [4] (Table 3, errors estimated ±30%), 2.1 µM; in experiment [5] (Table 3, errors estimated ±30%) it was 3.1 µM; in experiment [6] (Table 3, errors estimated ±30%) it was > 5 µM.

On to polymyxin B [PmxB, reference compound], for which the IC50 in experiment [1] (Table 2) was 0.03 µM; in experiment [1] (Table 3, errors estimated ±30%), 0.03 µM; in experiment [2] (setting [7]), 0.03 µM; in experiment [2] (setting [8]), 0.03 µM; in experiment [3] (Table 2), 0.003 µM; in experiment [3] (Table 3, errors estimated ±30%) it was 0.003 µM. The IC50 in experiment [4] (Table 2) is 0.01 µM; in experiment [4] (Table 3, errors estimated ±30%), 0.01 µM; in experiment [5] (Table 2), 0.1 µM; in experiment [5] (Table 3, errors estimated ±30%) it was 0.3 µM; in experiment [6] (Table 2) it was > 5 µM; in experiment [6] (Table 3, errors estimated ±30%), > 5 µM.

For “25,27-Bis(2-guanidinoethoxy)-26,28-dihydroxy calix[4]arene trifluoroacetic acid salt [Compound 36]”, the IC50 in experiment [1] (Table 3, errors estimated ±30%) is 3.9 µM; in experiment [2] (setting [8]), 4.1 µM; in experiment [3] (Table 3, errors estimated ±30%) it was > 5 µM; in experiment [4] (Table 3, errors estimated ±30%), > 5 µM; in experiment [5] (Table 3, errors estimated ±30%), > 5 µM; in experiment [6] (Table 3, errors estimated ±30%) it was > 5 µM.

On to “5,17-Di-(2-methallyl)-11,23-diallyl-25,26,27,28-tetrakis-N—(N,N-dimethyl-2-aminoethyl) carbamoylmethoxy calix[4]arene [Compound 41]”, for which the IC50 was 4.7 µM in experiment [1] (Table 3, errors estimated ±30%); 3.6 µM in experiment [2] (setting [8]); > 5 µM in experiment [3] (Table 3, errors estimated ±30%); > 5 µM in experiment [4] (Table 3, errors estimated ±30%); > 5 µM in experiment [5] (Table 3, errors estimated ±30%); > 5 µM in experiment [6] (Table 3, errors estimated ±30%).

In the case of “25,27-Bis[N—(N,N-dimethyl-2-aminoethyl)carbamoylmethoxy]-26,28-dihydroxy calix[4]arene [Compound 38]”, the IC50 in experiment [1] (Table 3, errors estimated ±30%) was > 5 µM; in experiment [2] (setting [8]) it was > 5 µM; in experiment [3] (Table 3, errors estimated ±30%), > 5 µM; in experiment [4] (Table 3, errors estimated ±30%), > 5 µM; in experiment [5] (Table 3, errors estimated ±30%) it was > 5 µM; in experiment [6] (Table 3, errors estimated ±30%), > 5 µM.
